{"source": "patent US20190223486A1", "about": "“CATECHIN ABSORPTION ENHANCER FOR ENHANCING CATECHIN ABSORPTION IN SMALL INTESTINAL EPITHELIAL CELLS” (AMOREPACIFIC CORPORATION, priority 2016, published 2019)", "origin": "cited, not measured here", "settings": "in vivo, po"}
{"substance": "catechin", "values": [{"measurement": "share of a catechin intake absorbed by the intestines", "value": "less than 2%"}]}
